Experimental data as given in patent US6936622B2, “6-phenylbenzonaphthyridines” (Altana Pharma AG, priority 2001, dated 2005).
Where a name gives a salt, the structure may show the parent alone.

What was measured:
PDE4 (cAMP-specific) = test: Inhibition of PDE isoenzymes: PDE4; assay type: biochemical; conditions: cytosol of human polymorphonuclear leukocytes (PMNL), cAMP as substrate, motapizone 1 μM
Experimental: (§1) 1. Inhibition of PDE Isoenzymes
(§2) The PDE activity was determined according to Thompson et al. (Adv Cycl Nucl Res 10: 69-92, 1979) with some modifications (Bauer and Schwabe, Naunyn-Schmiedeberg's Arch Pharmacol 311: 193198, 1980). The test samples contained 20 mM Tris (pH 7.4), 5 mM MgCl2, 0.5 μM cAMP or cGMP, [^3H]cAMP or [^3H]cGMP (about 30 000 cpm/sample), the PDE isoenzyme-specific additives described in greater detail below, the indicated concentrations of inhibitor and an aliquot of the enzyme solution in a total sample volume of 200 μl. Dilution series of the compounds according to the invention were prepared in DMSO and further diluted in the samples [1:100 (v/v)], to give the desired end concentration of the inhibitors at a DMSO concentration of 1% (v/v), which for its part has only a minute effect on PDE activity.
(§3) After preincubation at 37° C. for 5 minutes, the reaction was started by addition of the substrate (cAMP or cGMP). The samples were incubated at 37° C. for a further 15 min. The reaction was terminated by addition of 50 μl 0.2 N HCl. After cooling on ice for 10 minutes and addition of 25 μg 5′-nucleotidase (snake venom from Crotalus atrox), the mixture was again incubated at 37° C. for 10 min and the samples were then applied to QAE Sephadex A-25 columns (sample volume 1 ml). The columns were eluted with 2 ml of 30 mM ammonium formate (pH 6.0). The radioactivity of the eluate was measured and corrected by the corresponding blank values (measured in the presence of denatured protein); the blank values were less than 5% of the total radioactivity. In no case did the proportion of hydrolyzed nucleotide exceed 30% of the original substrate concentration.
PDE4 (cAMP-specific) was investigated in the cytosol of human polymorphonuclear leukocytes (PMNL) [isolated from leukocyte concentrates, see Schudt et al., Arch Pharmacol 1991: 344, 682-690] using cAMP as substrate. The PDE3 inhibitor motapizone (1 μM) was used to suppress the PDE3 activity emanating from contaminated platelets.
(§4) The IC50 values were determined from the concentration-inhibition curves by nonlinear regression.

PDE3 (cGMP-inhibited) = target: T1, PDE3 (cGMP-inhibited) (Homo sapiens, UniProt Q14432); test: Inhibition of PDE isoenzymes: PDE3; assay type: biochemical; conditions: homogenates of human platelets, cAMP or cGMP as substrate; read-out: PDE3 [-log IC50, mol/l] (converted)
T1 construct: investigated in homogenates of human platelets; from tissue; host or cells: homogenates of human platelets
T1 sequence (Q14432 whole entry): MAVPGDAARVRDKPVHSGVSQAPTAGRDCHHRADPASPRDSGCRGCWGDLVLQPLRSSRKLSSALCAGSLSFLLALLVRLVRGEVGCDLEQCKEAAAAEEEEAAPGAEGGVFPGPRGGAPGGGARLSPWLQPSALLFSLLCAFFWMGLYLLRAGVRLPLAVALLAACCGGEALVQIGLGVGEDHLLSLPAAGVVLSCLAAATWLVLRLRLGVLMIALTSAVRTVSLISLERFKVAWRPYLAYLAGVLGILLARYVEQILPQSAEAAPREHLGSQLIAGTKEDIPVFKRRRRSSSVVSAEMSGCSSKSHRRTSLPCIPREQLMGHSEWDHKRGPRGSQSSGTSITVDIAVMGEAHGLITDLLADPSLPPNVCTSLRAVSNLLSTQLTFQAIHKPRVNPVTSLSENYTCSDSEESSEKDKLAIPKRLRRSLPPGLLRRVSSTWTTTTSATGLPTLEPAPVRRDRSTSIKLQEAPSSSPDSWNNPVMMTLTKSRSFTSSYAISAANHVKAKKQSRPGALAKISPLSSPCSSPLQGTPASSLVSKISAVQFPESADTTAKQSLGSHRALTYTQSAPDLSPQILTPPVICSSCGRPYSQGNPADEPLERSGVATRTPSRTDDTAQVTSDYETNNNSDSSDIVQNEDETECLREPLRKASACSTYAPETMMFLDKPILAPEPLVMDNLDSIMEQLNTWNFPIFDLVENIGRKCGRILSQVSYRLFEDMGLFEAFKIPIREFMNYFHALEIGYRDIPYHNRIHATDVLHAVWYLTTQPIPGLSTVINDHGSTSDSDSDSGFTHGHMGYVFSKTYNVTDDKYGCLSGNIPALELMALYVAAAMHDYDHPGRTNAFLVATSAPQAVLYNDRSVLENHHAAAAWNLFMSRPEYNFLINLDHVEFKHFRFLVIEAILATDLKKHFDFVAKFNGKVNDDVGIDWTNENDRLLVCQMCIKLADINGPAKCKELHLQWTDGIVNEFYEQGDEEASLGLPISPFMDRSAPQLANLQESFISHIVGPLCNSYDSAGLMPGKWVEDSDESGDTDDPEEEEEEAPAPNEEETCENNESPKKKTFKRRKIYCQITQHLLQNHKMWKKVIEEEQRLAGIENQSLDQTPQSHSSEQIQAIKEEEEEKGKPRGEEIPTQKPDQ
Experimental: as §1, §2, §3
PDE3 (cGMP-inhibited) was investigated in homogenates of human platelets (see Schudt et al., Biochem Pharmacol 1991: 42, 153-162) using cAMP or cGMP as substrate.
as §4

| PDE4 [-log IC50, mol/l] (PDE4 (cAMP-specific)) | IC50 (PDE3 (cGMP-inhibited)) | melting point | SMILES |
| --- | --- | --- | --- |
| 9.49 | 129 nM |  | CCCCNC(=N)NC(=O)c1ccc(C2=N[C@H]3CCN(C)C[C@H]3c3cc(OCC)c(OC)cc32)cc1 (relative stereo) [Compound 21, N-Butyl-N′-{1-[4-((−)-cis-9-ethoxy-8-methoxy-2-methyl-1,2,3,4,4a,10b-hexahydro-benzo[c][1,6]naphthyridin-6-yl)-phenyl]-methanoyl}-guanidine] |
| 9.13 | 363 nM |  | CCOc1cc2c(cc1OC)C(c1ccc(C(=O)N=C(N)N3CCN(C)CC3)cc1)=NC1CCN(C)CC21 (stereo not drawn) [Compound 6, N-[1-Amino-1-(4-methylpiperazin-1-yl)methylene]-4-((+)-cis-9-ethoxy-8-methoxy-2-methyl-1,2,3,4,4a,10b-hexahydro[c][1,6]naphthyridin-6-yl)benzamide dihydrochloride] |
| 9.34 | 123 nM |  | CCOc1cc2c(cc1OC)C(c1ccc(C(=O)NC(=N)NCC(C)C)cc1)=N[C@H]1CCN(C)C[C@@H]21 (relative stereo) [Compound 17, N-{1-[4-((−)-cis-9-Ethoxy8-methoxy-2-methyl-1,2,3,4,4a,10b-hexahydro-benzo[c][1,6]naphthyridin-6-yl)-phenyl]-methanoyl}-N′-isobutyl-guanidine] |
| 9.01 | 129 nM |  | CCOc1cc2c(cc1OC)C(c1ccc(C(=O)N=C(N(C)C)N(C)C)cc1)=NC1CCN(C)CC21 (single isomer, unassigned) [Compound 5, N″{1-[4-((−)-cis-9-Ethoxy-8-methoxy-2-methyl-1,2,3,4,4a,10b-hexahydro[c][1.6]naphthyridin-6-yl)phenyl]methanoyl}-N,N,N′,N′-tetramethylguanidine hydrochloride] |
|  |  | 169 to 175 °C | CCOc1cc2c(cc1OC)C(c1ccc(C(=O)N=C(N(C)C)N(C)C)cc1)=NC1CCN(C)CC21 (single isomer, unassigned) (as salt: hydrochloride) [Compound 5, N″{1-[4-((−)-cis-9-Ethoxy-8-methoxy-2-methyl-1,2,3,4,4a,10b-hexahydro[c][1.6]naphthyridin-6-yl)phenyl]methanoyl}-N,N,N′,N′-tetramethylguanidine hydrochloride] |
| 8.76 | 245 nM |  | CCNC(=N)NC(=O)c1ccc(C2=N[C@H]3CCN(C)C[C@H]3c3cc(OCC)c(OC)cc32)cc1 (relative stereo) [Compound 18, N-{1-[4-((−)-cis-9-Ethoxy-8-methoxy-2-methyl-1,2,3,4,4a,10b-hexahydro-benzo[c][1,6]naphthyridin-6-yl)-phenyl]-methanoyl}-N′-ethyl-guanidine] |
|  |  | 209 to 215 °C | CCOc1cc2c(cc1OC)C(c1ccc(C(=O)N=C(N)N3CCN(C)CC3)cc1)=NC1CCN(C)CC21 (stereo not drawn) (as salt: hydrochloride) [Compound 6, N-[1-Amino-1-(4-methylpiperazin-1-yl)methylene]-4-((+)-cis-9-ethoxy-8-methoxy-2-methyl-1,2,3,4,4a,10b-hexahydro[c][1,6]naphthyridin-6-yl)benzamide dihydrochloride] |
| 9.39 | 87.1 nM |  | CCOc1cc2c(cc1OC)C(c1ccc(C(=O)NC(=N)N(C)C)cc1)=NC1CCN(C)CC21 (stereo not drawn) [Compound 3, N′{1-[4-((+)-cis-9-Ethoxy-8-methoxy-2-methyl-1,2,3,4,4a,10b-hexahydro[c][1,6[-naphthyridin-6-yl)phenyl]methanoyl}-N,N-dimethylguanidinedihydrochloride] |

Second part, the molecule before the results:

| SMILES | PDE4 [-log IC50, mol/l] (PDE4 (cAMP-specific)) | IC50 (PDE3 (cGMP-inhibited)) | melting point |
| --- | --- | --- | --- |
| CCOc1cc2c(cc1OC)C(c1ccc(C(=O)NC(=N)N3CCOCC3)cc1)=NC1CCN(C)CC21 (stereo not drawn) [Compound 1, 4-[(+)-cis-9-Ethoxy-8-methoxy-2-methyl-1,2,3,4,4a,10b-hexahydro[c][1,6]naphthyridin-yl)-N-(1-imino-1-morpholin-4-ylmethyl)]benzamide dihydrochloride] | 9.22 | 135 nM |  |
| CCOc1cc2c(cc1OC)C(c1ccc(C(=O)NC(=N)N(C)CCO)cc1)=NC1CCN(C)CC21 (stereo not drawn) [Compound 4, N′-{1-[4-((+)-cis-9-Ethoxy-8-methoxy-2-methyl-1,2,3,4,4a,10b-hexahydro[c][1,6]naphthyridin-6-yl)phenyl]methanoyl}-N-(2-hydroxyethyl)-N-methylguanidine dihydrochloride] | 8.34 | 1150 nM |  |
| CCOc1cc2c(cc1OC)C(c1ccc(C(=O)NC(=N)NC3CCCCC3)cc1)=N[C@H]1CCN(C)C[C@@H]21 (relative stereo) [Compound 19, N-Cyclohexyl-N′-{1-[4-((−)-cis-9-ethoxy-8-methoxy-2-methyl-1,2,3,4,4a,10b-hexahydro-benzo [c][1,6]naphthyridin-6-yl)-phenyl]-methanoyl}-guanidine] | 9.50 | 132 nM |  |
| CCOc1cc2c(cc1OC)C(c1ccc(C(=O)NC(=N)N(CC)CC)cc1)=NC1CCN(C)CC21 (stereo not drawn) (as salt: hydrochloride) [Compound 2, N′-{1-[4-((+)-cis-9-Ethoxy-8-methoxy-2-methyl-1,2,3,4,4a,10b-hexahydro[c][1,6]naphthyridin-6-yl)phenyl]methanoyl}-N,N-diethylguanidine dihydrochloride] |  |  | 194 to 203 °C |
| CCOc1cc2c(cc1OC)C(c1ccc(C(=O)NC(=N)NC)cc1)=N[C@H]1CCN(C)C[C@@H]21 (relative stereo) [Compound 14, N-{1-[4-((−)-cis-9-Ethoxy-8-methoxy-2-methyl-1,2,3,4,4a,10b-hexahydro-benzo[c][1,6]naphthyridin-6-yl)-phenyl]-methanoyl}-N′-methyl-guanidine] | 8.82 | 309 nM |  |
| CCCNC(=N)NC(=O)c1ccc(C2=N[C@H]3CCN(C)C[C@H]3c3cc(OCC)c(OC)cc32)cc1 (relative stereo) [Compound 16, N-{1-[4-((−)-cis-9-Ethoxy-8-methoxy-2-methyl-1,2,3,4,4a,10b-hexahydro-benzo[c][1,6]naphthyridin-6-yl)-phenyl]-methanoyl}-N′-propyl-guanidine] | 9.65 | 166 nM |  |
| CCOc1cc2c(cc1OC)C(c1ccc(C(=O)NC(=N)N(C)C)cc1)=NC1CCN(C)CC21 (stereo not drawn) (as salt: hydrochloride) [Compound 3, N′{1-[4-((+)-cis-9-Ethoxy-8-methoxy-2-methyl-1,2,3,4,4a,10b-hexahydro[c][1,6[-naphthyridin-6-yl)phenyl]methanoyl}-N,N-dimethylguanidinedihydrochloride] |  |  | 134 to 141 °C |
| CCOc1cc2c(cc1OC)C(c1ccc(C(=O)NC(=N)N(CC)CC)cc1)=NC1CCN(C)CC21 (stereo not drawn) [Compound 2, N′-{1-[4-((+)-cis-9-Ethoxy-8-methoxy-2-methyl-1,2,3,4,4a,10b-hexahydro[c][1,6]naphthyridin-6-yl)phenyl]methanoyl}-N,N-diethylguanidine dihydrochloride] | 9.77 | 42.7 nM |  |
| CCOc1cc2c(cc1OC)C(c1ccc(C(=O)NC(=N)NCC3CCCCC3)cc1)=N[C@H]1CCN(C)C[C@@H]21 (relative stereo) [Compound 20, N-Cyclohexylmethyl-N′-{1-[4-((−)-cis-9-ethoxy-8-methoxy-2-methyl-1,2,3,4,4a,10b-hexahydro-benzo[c][1,6]naphthyridin-6-yl)-phenyl]-methanoyl}-guanidine] | 9.65 | 97.7 nM |  |
| CCOc1cc2c(cc1OC)C(c1ccc(C(=O)NC(=N)NC(C)C)cc1)=N[C@H]1CCN(C)C[C@@H]21 (relative stereo) [Compound 15, N-{1-[4-((−)-cis-9-Ethoxy-8-methoxy-2-methyl-1,2,3,4,4a,10b-hexahydro-benzo[c][1,6]naphthyridin-6-yl)-phenyl]-methanoyl}-N′-isopropyl-guanidine] | 9.11 | 155 nM |  |
| CCOc1cc2c(cc1OC)C(c1ccc(C(=O)NC(=N)N)cc1)=N[C@H]1CCN(C)C[C@@H]21 (relative stereo) [Compound 7, N-{1-[4-((−)-cis-9-Ethoxy-8-methoxy-2-methyl-1,2,3,4,4a,10b-hexahydro-benzo[c]-[1,6]naphthyridin-6-yl)-phenyl]-methanoyl}guanidine] | 8.83 | 195 nM |  |
